In ChEMBL document CHEMBL4177537, “Identification of a new class of potent Cdc7 inhibitors designed by putative pharmacophore model: Synthesis and biological evaluation of 2,3-dihydrothieno[3,2-d]pyrimidin-4(1H)-ones” (Bioorg Med Chem, 2017):

Legend:
[1] = molecular target: CDC7/DBF4 (Cell division cycle 7-related protein kinase/Activator of S phase kinase) (Homo sapiens, UniProt O00311); assay: Inhibition of recombinant human Cdc7 (1 to 574 residues)/human N-terminal GST-tagged DBF4 (1 to 674 residues) expressed in baculovirus expression system using His-tagged MCM2 as substrate preincubated for 10 mins followed by ATP addition by HTRF assay
[2] = molecular target: Cyclin-dependent kinase 2/cyclin E1 (Homo sapiens, UniProt P24941); assay: Inhibition of recombinant human Cdk2 (1 to 298 residues)/human N-terminal GST-tagged cyclinE (1 to 410 residues) expressed in baculovirus expression system using histone H1 as substrate after 90 mins in presence of ATP by kinase-glo assay
[3] = molecular target: Rho-associated protein kinase 1 (Homo sapiens, UniProt Q13464); assay: Inhibition of recombinant human N-terminal GST-tagged ROCK1 (1 to 477 residues) expressed in baculovirus expression system using biotin-STK substrate-2 as substrate preincubated for 5 mins followed by ATP addition after 2 hrs by TR-FRET assay
[4] = molecular target: Cell division cycle 7-related protein kinase (Homo sapiens, UniProt O00311); assay: Inhibition of Cdc7 in human HeLa cells assessed as reduction in MCM2 phosphorylation at ser40 residues after 7 hrs by Western blot analysis; format: cell-based
COLO 205 = assay: Cytotoxicity against human COLO205 cells after 3 days by CellTiter-Glo luminescent cell viability assay; format: functional, cell-based; details: COLO 205, 72 h
[5] = Solubility of the compound; format: physicochemical

IC50 [1] [nM]	IC50 [2] [nM]	IC50 [3] [nM]	IC50 [4] [nM]	solubility [5]	Compound	EC50 (COLO 205) [nM]
1200	–	–	–	–	NC(=O)c1sc(-c2ccncc2)cc1N	–
9.5	26	22	–	–	CN1c2c(sc(-c3cn[nH]c3)c2Br)C(=O)NC1(C)C	–
8.2	4900	100	–	–	O=C1NC2(CCCC2)Nc2cc(-c3ccncc3)sc21	–
8.2	1400	35	–	–	CC(C)C1(C)NC(=O)c2sc(-c3ccncc3)cc2N1 (stereo not given)	–
2.9	260	54	–	–	Cc1n[nH]cc1-c1cc2c(s1)C(=O)NC(C)(C)N2C	–
2.7	1200	31	–	–	CC1(CC(F)(F)F)NC(=O)c2sc(-c3ccncc3)cc2N1 (stereo not given)	–
> 10000	650	1.5	–	–	CC1(C)Nc2cc(-c3ccncc3)sc2C(=O)N1Cc1ccccc1	–
140	–	100	–	–	CC1(C)NC(=O)c2cc(-c3ccncc3)sc2N1	–
1.5	1300	48	290	Soluble	Cc1n[nH]cc1-c1cc2c(s1)C(=O)NC1(CCCCC1)N2	470
2	2200	2900	> 1000	Soluble	Cc1n[nH]cc1-c1cc2c(s1)C(=O)N[C@]1(CC[C@](O)(C3CCCCC3)CC1)N2	6200
9.9	2100	140	–	–	CN1c2cc(-c3ccncc3)sc2C(=O)NC1(C)C	–
14	26	44	–	–	Cc1c(-c2cn[nH]c2)sc2c1N(C)C(C)(C)NC2=O	–
1.2	960	820	> 1000	Soluble	Cc1n[nH]cc1-c1cc2c(s1)C(=O)N[C@]1(CC[C@](O)(c3ccc(F)cc3)CC1)N2	4500
450	> 10000	240	–	–	CN1C(=O)c2sc(-c3ccncc3)cc2NC1(C)C	–
1	420	22	210	Soluble	Cc1n[nH]cc1-c1cc2c(s1)C(=O)NC(C)(CC(F)(F)F)N2C (stereo not given)	330
13	360	350	–	–	CCc1n[nH]cc1-c1cc2c(s1)C(=O)NC(C)(C)N2C	–
7.5	2000	36	–	–	CCC1(C)NC(=O)c2sc(-c3ccncc3)cc2N1 (stereo not given)	–
3.6	2300	37	–	–	O=C1NC2(CCCCCC2)Nc2cc(-c3ccncc3)sc21	–
26	3200	90	–	–	CC1(C)NC(=O)c2sc(-c3ccncc3)cc2N1	–
3	2000	53	–	–	O=C1NC2(CCCCC2)Nc2cc(-c3ccncc3)sc21	–
290	1100	2100	–	–	Cc1n[nH]c(C)c1-c1cc2c(s1)C(=O)NC(C)(C)N2C	–
380	> 10000	350	–	–	Cc1n[nH]cc1-c1cc2c(s1)C(=O)N[C@]1(CC[C@@](O)(C3CCCCC3)CC1)N2	–
8.4	160	130	–	–	CN1c2cc(-c3cn[nH]c3)sc2C(=O)NC1(C)C	–
6.3	2000	33	–	–	CCCC1(C)NC(=O)c2sc(-c3ccncc3)cc2N1 (stereo not given)	–
170	> 10000	130	–	–	Cc1n[nH]cc1-c1cc2c(s1)C(=O)N[C@]1(CC[C@@](O)(c3ccc(F)cc3)CC1)N2	–
690	–	–	–	–	O=c1[nH]c(=O)c2sc(-c3ccncc3)cc2[nH]1	–
